Laboratory results from patent US12220440B2, “Drug composition, method for treating infection, disinfecting composition, and drug adjuvant” (priority 2022, dated 2025).
Read-outs that look alike come from different tables or passages of the source.

How the values were obtained:
Assay type in all cases: cell-based
S. Typhimurium PY01 = assay: MIC, colistin-susceptible S. Typhimurium, with and without otilonium bromide; settings: Salmonella enterica, Ob alone, read-out: Ob MIC
P. aeruginosa PAO1 = assay: Bacterial motility on semisolid agar (migration distance)
Excerpt: It is believed that flagellar formation and flagellar motor rotation are driven by PMF. To study the effect of otilonium bromide on bacterial motility, P. aeruginosa, whose motility on a semisolid surface is dependent upon a functional flagellum, is reviewed. […] Gramicidin, an ionophore known for acting as PMF dissipater, is the positive control. […] For the experiments in FIG. 6a, P. aeruginosa is inoculated in the center of the semisolid agar containing otilonium bromide at the indicated concentrations, with gramicidin as the positive control. A set of 10 mM CaCl2 and no CaC2 plates are also prepared as indicated.
The migration distance is measured in cm and recorded after the inoculated plates ae incubated. The error bars represent the means and standard deviations (SDs). Statistical analysis is performed using unpaired two-tailed student t-test. .*, p<0.05, **, p<0.005, ***p<0.0005, ****p<0.00005.

mcr-1-bearing E. coli = assay: LIVE/DEAD cell viability assay, fluorescence microscopy; settings: 20 μg/ml of otilonium bromide alone
Description: Fluorescence microscopy quantifies the number of live and dead cells and determines the degree of reduction in colistin concentration in the drug combination required for effective eradication of the test organism. […] However, in the presence of 20 μg/ml of otilonium bromide, 4 μg/ml of colistin eradicates >97% of the bacteria.

[1] = system: P. aeruginosa (colistin-susceptible); assay: MIC, colistin-susceptible P. aeruginosa isolates, with and without otilonium bromide; settings: Pseudomonas aeruginosa, Ob alone, read-out: Ob MIC
[2] = system: E. coli (colistin-resistant); assay: MIC, colistin-resistant E. coli clinical isolates, with and without otilonium bromide; settings: Escherichia coli, Ob alone, read-out: Ob MIC
[3] = system: mcr-1-bearing E. coli J53; assay: SYTOX Green membrane permeability staining
Excerpt: SYTOX™ Green (available from ThermoFisher Scientific) staining analysis assesses the membrane permeability of colistin-resistant E. coli before and after treatment with the colistin and otilonium bromide combination. SYTOX Green is a green-fluorescent nucleotide dye used to test membrane permeability and membrane integrity. Green fluorescence is detected by fluorescence spectrometer when bacterial cell integrity is destroyed and membrane permeability increases.

[4] = system: A. baumannii (colistin-resistant); assay: MIC, colistin-resistant A. baumannii isolates, with and without otilonium bromide; settings: Acinetobacter baumannii
E. coli Bw25113 = assay: MIC, colistin-susceptible E. coli, with and without otilonium bromide; settings: Escherichia coli, Ob alone, read-out: Ob MIC

## CCCCCCCCOc1ccccc1C(=O)Nc1ccc(C(=O)OCC[N+](C)(CC)CC)cc1.[Br-] [Ob, Otilonium bromide]
S. Typhimurium PY01
  MIC: > 64 µg/mL
P. aeruginosa PAO1; 40 μM otilonium bromide supplemented with 10 mM calcium ions
  migration distance on semisolid agar: significant increase in migration distance
P. aeruginosa PAO1; plates containing otilonium bromide, overnight incubation
  migration distance on semisolid agar: decrease in a dose-dependent manner
mcr-1-bearing E. coli
  live/dead state of cells: most or all mcr-1-bearing E. coli strains were alive
[1]; P. aeruginosa PA01, colistin-susceptible
  MIC: > 64 µg/mL
[1]; P. aeruginosa PAER 2011-3010, colistin-susceptible
  MIC: > 64 µg/mL
[1]; P. aeruginosa PAER 2011-3252, colistin-susceptible
  MIC: > 64 µg/mL
[1]; P. aeruginosa PAER 2012-1527, colistin-susceptible
  MIC: > 64 µg/mL
[1]; P. aeruginosa PAERC 10.296, colistin-susceptible
  MIC: > 64 µg/mL
[1]; P. aeruginosa PAERC 11.2309, colistin-susceptible
  MIC: > 64 µg/mL
[1]; P. aeruginosa PAERC 11.236, colistin-susceptible
  MIC: > 64 µg/mL
[1]; P. aeruginosa PAERC 11.603, colistin-susceptible
  MIC: > 64 µg/mL
[1]; P. aeruginosa PAERC 12.1478, colistin-susceptible
  MIC: > 64 µg/mL
[2]; E. coli 5, colistin-resistant
  MIC: > 64 µg/mL
[2]; E. coli 12.12.0487, colistin-resistant
  MIC: > 64 µg/mL
[2]; E. coli 101, colistin-resistant
  MIC: > 64 µg/mL
[2]; E. coli 119, colistin-resistant
  MIC: > 64 µg/mL
[2]; E. coli 812, colistin-resistant
  MIC: > 64 µg/mL
[2]; E. coli 2016.2.5 1149-1, colistin-resistant
  MIC: > 64 µg/mL
[2]; E. coli 34650, colistin-resistant
  MIC: > 64 µg/mL
[2]; E. coli CX48, colistin-resistant
  MIC: > 64 µg/mL
[2]; E. coli CX53, colistin-resistant
  MIC: > 64 µg/mL
[2]; E. coli CX116, colistin-resistant
  MIC: > 64 µg/mL
[2]; E. coli WZ2431, colistin-resistant
  MIC: > 64 µg/mL
[2]; E. coli WZ2909, colistin-resistant
  MIC: > 64 µg/mL
[2]; E. coli WZ3903, colistin-resistant
  MIC: > 64 µg/mL
[2]; E. coli WZ3906, colistin-resistant
  MIC: > 64 µg/mL
[2]; E. coli WZ3920, colistin-resistant
  MIC: > 64 µg/mL
[2]; E. coli WZ3951, colistin-resistant
  MIC: > 64 µg/mL
[2]; E. coli WZ3955, colistin-resistant
  MIC: > 64 µg/mL
[2]; E. coli X2169, colistin-resistant
  MIC: > 64 µg/mL
[3]; each drug individually
  SYTOX Green fluorescence (membrane permeability): significant increase in fluorescence
[3]; otilonium bromide by itself
  ability to enhance membrane permeability, compared with colistin: significantly lower than colistin
[4]; ATCC17978, read-out: Ob MIC
  MIC: 20 µg/mL
[4]; read-out: Ob MIC, A. baumannii ABJZ-45, colistin-resistant, Ob alone
  MIC: 20 µg/mL
[4]; read-out: Ob MIC, A. baumannii ABJZ-46, colistin-resistant, Ob alone
  MIC: 20 µg/mL
[4]; read-out: Ob MIC, A. baumannii ABJZ-50, colistin-resistant, Ob alone
  MIC: 20 µg/mL
E. coli Bw25113
  MIC: > 64 µg/mL
